Results from BindingDB's records for doi:10.1124/jpet.102.036376 (University of Arkansas, 2002).

What was measured:
[1] = target: T1, Muscarinic acetylcholine receptor M1 (Rattus norvegicus, UniProt P08482)
T1 sequence (P08482 whole entry): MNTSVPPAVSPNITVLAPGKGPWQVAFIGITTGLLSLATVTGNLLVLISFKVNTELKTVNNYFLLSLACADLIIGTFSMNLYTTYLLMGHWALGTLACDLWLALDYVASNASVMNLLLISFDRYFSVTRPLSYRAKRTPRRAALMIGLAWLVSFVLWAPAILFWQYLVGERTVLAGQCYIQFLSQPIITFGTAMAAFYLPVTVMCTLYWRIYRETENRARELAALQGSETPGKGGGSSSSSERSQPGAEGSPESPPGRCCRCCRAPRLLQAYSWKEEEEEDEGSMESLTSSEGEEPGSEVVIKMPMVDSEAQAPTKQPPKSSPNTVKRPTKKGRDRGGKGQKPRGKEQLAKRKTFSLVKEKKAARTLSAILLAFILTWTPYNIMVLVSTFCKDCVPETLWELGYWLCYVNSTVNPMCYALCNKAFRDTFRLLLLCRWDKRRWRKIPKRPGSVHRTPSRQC

[2] = target: Muscarinic acetylcholine receptor M3 (Rattus norvegicus, UniProt P08483)
[3] = target: T2, Muscarinic acetylcholine receptor M5 (Homo sapiens, UniProt P08912)
T2 sequence (P08912 whole entry): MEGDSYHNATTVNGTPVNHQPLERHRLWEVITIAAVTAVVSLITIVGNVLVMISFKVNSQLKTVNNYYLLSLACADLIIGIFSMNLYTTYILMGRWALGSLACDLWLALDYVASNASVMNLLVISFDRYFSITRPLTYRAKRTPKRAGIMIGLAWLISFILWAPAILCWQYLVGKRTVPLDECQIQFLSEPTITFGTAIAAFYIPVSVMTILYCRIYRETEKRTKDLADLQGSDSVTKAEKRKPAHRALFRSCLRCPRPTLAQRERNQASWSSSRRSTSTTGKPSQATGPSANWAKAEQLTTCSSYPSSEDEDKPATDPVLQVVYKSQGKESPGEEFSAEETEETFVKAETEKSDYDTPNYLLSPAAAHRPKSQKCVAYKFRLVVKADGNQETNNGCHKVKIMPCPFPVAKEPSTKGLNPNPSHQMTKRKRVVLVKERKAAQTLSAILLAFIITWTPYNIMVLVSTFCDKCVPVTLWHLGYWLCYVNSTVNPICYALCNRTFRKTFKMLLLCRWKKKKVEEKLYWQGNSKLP

[4] = target: T3, Muscarinic acetylcholine receptor M4 (Homo sapiens, UniProt P08173)
T3 sequence (P08173 whole entry): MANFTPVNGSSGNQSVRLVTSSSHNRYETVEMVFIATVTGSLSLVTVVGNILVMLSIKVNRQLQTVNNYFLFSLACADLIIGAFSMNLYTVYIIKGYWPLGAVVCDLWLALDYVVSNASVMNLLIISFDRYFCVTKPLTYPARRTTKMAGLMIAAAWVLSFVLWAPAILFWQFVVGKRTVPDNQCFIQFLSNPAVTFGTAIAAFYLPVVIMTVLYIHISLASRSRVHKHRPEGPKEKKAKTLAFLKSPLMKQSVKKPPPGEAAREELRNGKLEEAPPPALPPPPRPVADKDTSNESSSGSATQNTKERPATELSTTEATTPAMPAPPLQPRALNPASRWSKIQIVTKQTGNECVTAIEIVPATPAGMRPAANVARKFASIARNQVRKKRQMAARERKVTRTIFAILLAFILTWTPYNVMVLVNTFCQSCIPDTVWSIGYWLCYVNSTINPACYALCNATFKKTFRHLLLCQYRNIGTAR

Measured: Ki

Chain of Muscarinic acetylcholine receptor M3 (P08483 whole entry): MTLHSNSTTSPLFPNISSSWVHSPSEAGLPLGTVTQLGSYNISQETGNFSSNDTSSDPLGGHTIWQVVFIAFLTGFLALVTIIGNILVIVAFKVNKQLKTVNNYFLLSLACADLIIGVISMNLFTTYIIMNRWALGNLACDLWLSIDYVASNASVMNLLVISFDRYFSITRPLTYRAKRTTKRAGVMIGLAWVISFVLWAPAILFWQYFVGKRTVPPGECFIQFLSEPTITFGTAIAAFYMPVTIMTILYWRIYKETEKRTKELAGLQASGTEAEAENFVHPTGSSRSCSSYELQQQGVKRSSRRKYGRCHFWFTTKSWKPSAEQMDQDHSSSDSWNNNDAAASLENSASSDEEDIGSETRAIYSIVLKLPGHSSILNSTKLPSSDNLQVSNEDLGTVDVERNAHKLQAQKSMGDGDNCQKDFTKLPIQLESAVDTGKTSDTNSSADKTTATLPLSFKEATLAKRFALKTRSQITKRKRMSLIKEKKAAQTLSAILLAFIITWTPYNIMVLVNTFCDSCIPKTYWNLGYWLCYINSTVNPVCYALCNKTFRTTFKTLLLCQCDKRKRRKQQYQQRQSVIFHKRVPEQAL

CC(CCC(=O)NCC(=O)O)C1CCC2C3CCC4CC(O)CCC4(C)C3CCC12C (stereo unspecified) [CAS_115245]
> 10 µM: all assays above

CC(CCC(=O)NCCS(=O)(=O)O)C1CCC2C3CCC4CC(O)CCC4(C)C3CCC12C (stereo unspecified) [NSC_10595]
> 10 µM: [1] | [2]
